Experimental data reported in patent publication US10561703B2, “Method of modulating sex hormone levels using a sex hormone secretion modulator” (GEMVAX & KAEL CO., LTD., priority 2013, dated 2020).

System: Testosterone
Experiment: Testosterone level in blood (serum CLIA) after repeated sc PEP-1
Assay type: in vivo, SD rats
Procedure: PEP-1 (peptide of SEQ ID NO: 1), lyophilized white powder, obtained according to the method mentioned in example 1 was dissolved in 0.9% of saline, considering the correction factor of PEP-1 (purity: 94.13%, content: 92.36%, correction factor: 1.15). 50 mg/mL stock solution was further diluted into 20 mg/mL, 2 mg/mL, and 1 mg/mL with 0.9% saline, and stored at 4° C. for a week until the use.
The purpose of this example is to confirm the change of sexual hormones in blood from SD rats with 7 days repeated daily administration of SEQ ID NO: 1 peptide, PEP-1. This experiment followed the Ethics Regulation of Animal Test by KAMSI Inc. (Korea Animal Medical Science Institute). In addition, this experiment, Non-GLP experiment, referred to the MFDS (Ministry of Food and Drug Safety) notification; Agent 2013-40 (5th April 2013), Principles of Good Laboratory Practice (1997).
SPF Rats (Crlj:CD(SD)) were purchased from ORIENTBio Inc. (Mokdong-ri, Buk-myeon, Gapyeong-gun, Gyeonggi-do, Republic of Korea). 75 male (6.5 weeks old and 190˜210 g) and 75 female (6.5 weeks old and 160˜180 g) rats were monitored for 4 days, and 64 of male and female rats (each) were selected for the experiment. Raising condition is as follows; 23±3° C. of temperature, […] of relative humidity, 10˜20 times/hr of number of air changes, 12 hours (8 a.m.˜8 p.m.) of lighting with 150˜300 Lux of intensity.
64 male and female […] (mentioned above) were divided into 8 groups. Administration regimen, for example, drugs, routes, dosages, and volumes were as follows:
The detailed administration regimen is as follows; once a day, twice a day and twice a week in each experimental group. Injection initiated at 10 a.m. every day, and each rat was injected at one minute intervals. Rats in Group 9, 10, 13 and 14 were injected twice a week. Administration of high dose test agent preceded that of low dose. The volume of injection was calculated using recently measured weight of rats, and it was 5 mL/kg. Subcutaneous injection was performed as follows; assistant tilted the back of rat upward, and experimenter sterilized the back of rat with 70% alcohol, followed by subcutaneous injection of test agent with 26 G syringe.
1.4 mL of blood sample (0.7 mL of serum) was collected after measurement of weight (Day 0). Next day (1 Day), 1.4 mL of blood sample (0.7 mL of serum) was collected twice after injection of test agent (4 hrs and 8 hrs after administration of test agent). For next 6 days (Day 2˜Day 7), 1.4 mL of blood was extracted once everyday (4 hours after injection of test agent). Dose and volume of test agent of each group followed the Table 3, and injection time zone was same every day. Blood was extracted from the jugular vein, and left at room temperature for 30 minutes. Serum was separated using centrifugation (10,000 rpm for 5 minutes), and stored at −70±5° C. in Deep freezer until the use. Blood extraction from each subject was done in the same time zone every day.
A CLIA (Chemi-Luminescence Immune Assay) Kit was used to analyze Testosterone, Estradiol E2, FSH (Follicle stimulating hormone), and LH (Luteinizing hormone). Analysis was completed within 48 hrs after blood extraction (Laboratory Medicine Department, Chung-Ang University Hospital), and detailed method is as follows; One-way ANOVA was used to verify the comparison between the vehicle and PEP-1, and between different doses of PEP-1. For further analysis, Duncan test was used as parametric test and Dunnett's test as non-parametric test. p<0.05 represents the statistical significance, and all statistical analysis was carried out with SPSS 10.1.
Testosterone was analyzed using the samples prepared from example 2. 15 μL of serum was used for analysis. Fundamentals of analysis is competitive immunoassay based on direct chemi-luminescent. As mentioned in example 2, CLIA (Chemi-luminescence immune assay) Kit was used for Testosterone analysis, following the manufacture's protocol. […]

Sequence: EARPALLTSRLRFIPK (listed as Homo sapiens) [PEP-1, hormone secretion modulator / GnRH analog]
- Testosterone level in blood (G11 Female 100 mg/kg sc 1/day x7, 6 days): 1.01 ng/dL
- Testosterone level in blood (G11 Female 100 mg/kg sc 1/day x7, 7 days): 1.25 ng/dL
- Testosterone level in blood (G11 Female 100 mg/kg sc 1/day x7, pre): 1.79 ng/dL
- Testosterone level in blood (G12 Male 100 mg/kg sc 1/day x7, 4 hr): 0.08 ng/dL
- Testosterone level in blood (G12 Male 100 mg/kg sc 1/day x7, 8 hr): 0.01 ng/dL
- Testosterone level in blood (G12 Male 100 mg/kg sc 1/day x7, 2 days): 0.01 ng/dL
- Testosterone level in blood (G12 Male 100 mg/kg sc 1/day x7, 3 days): 0.05 ng/dL
- Testosterone level in blood (G12 Male 100 mg/kg sc 1/day x7, 4 days): 0.17 ng/dL
- Testosterone level in blood (G12 Male 100 mg/kg sc 1/day x7, 5 days): 0.11 ng/dL
- Testosterone level in blood (G12 Male 100 mg/kg sc 1/day x7, 6 days): 0.12 ng/dL
- Testosterone level in blood (G12 Male 100 mg/kg sc 1/day x7, 7 days): 0.12 ng/dL
- Testosterone level in blood (G12 Male 100 mg/kg sc 1/day x7, pre): 0.18 ng/dL
- Testosterone level in blood (G13 Female 100 mg/kg sc 2/week x2 (days 1,7), 4 hr): 7.48 ng/dL
- Testosterone level in blood (G13 Female 100 mg/kg sc 2/week x2 (days 1,7), 8 hr): 6.34 ng/dL
- Testosterone level in blood (G13 Female 100 mg/kg sc 2/week x2 (days 1,7), 2 days): 0.97 ng/dL
- Testosterone level in blood (G13 Female 100 mg/kg sc 2/week x2 (days 1,7), 3 days): 1.65 ng/dL
- Testosterone level in blood (G13 Female 100 mg/kg sc 2/week x2 (days 1,7), 4 days): 1.25 ng/dL
- Testosterone level in blood (G13 Female 100 mg/kg sc 2/week x2 (days 1,7), 5 days): 1.3 ng/dL
- Testosterone level in blood (G13 Female 100 mg/kg sc 2/week x2 (days 1,7), 6 days): 2.54 ng/dL
- Testosterone level in blood (G13 Female 100 mg/kg sc 2/week x2 (days 1,7), 7 days): 12.35 ng/dL
- Testosterone level in blood (G13 Female 100 mg/kg sc 2/week x2 (days 1,7), pre): 1.71 ng/dL
- Testosterone level in blood (G14 Male 100 mg/kg sc 2/week x2 (days 1,7), 4 hr): 0.07 ng/dL
- Testosterone level in blood (G14 Male 100 mg/kg sc 2/week x2 (days 1,7), 8 hr): 0.01 ng/dL
- Testosterone level in blood (G14 Male 100 mg/kg sc 2/week x2 (days 1,7), 2 days): 0.01 ng/dL
- Testosterone level in blood (G14 Male 100 mg/kg sc 2/week x2 (days 1,7), 3 days): 0.13 ng/dL
- Testosterone level in blood (G14 Male 100 mg/kg sc 2/week x2 (days 1,7), 4 days): 0.17 ng/dL
- Testosterone level in blood (G14 Male 100 mg/kg sc 2/week x2 (days 1,7), 5 days): 0.13 ng/dL
- Testosterone level in blood (G14 Male 100 mg/kg sc 2/week x2 (days 1,7), 6 days): 0.14 ng/dL
- Testosterone level in blood (G14 Male 100 mg/kg sc 2/week x2 (days 1,7), 7 days): 0.15 ng/dL
- Testosterone level in blood (G14 Male 100 mg/kg sc 2/week x2 (days 1,7), pre): 0.13 ng/dL
- Testosterone level in blood (G15 Female 250 mg/kg sc 1/day x7, 4 hr): 6.27 ng/dL
- Testosterone level in blood (G15 Female 250 mg/kg sc 1/day x7, 8 hr): 8.2 ng/dL
- Testosterone level in blood (G15 Female 250 mg/kg sc 1/day x7, 2 days): 3.77 ng/dL
- Testosterone level in blood (G15 Female 250 mg/kg sc 1/day x7, 3 days): 2.09 ng/dL
- Testosterone level in blood (G15 Female 250 mg/kg sc 1/day x7, 4 days): 0.8 ng/dL
- Testosterone level in blood (G15 Female 250 mg/kg sc 1/day x7, 5 days): 0.75 ng/dL
- Testosterone level in blood (G15 Female 250 mg/kg sc 1/day x7, 6 days): 1.27 ng/dL
- Testosterone level in blood (G15 Female 250 mg/kg sc 1/day x7, 7 days): 1.52 ng/dL
- Testosterone level in blood (G15 Female 250 mg/kg sc 1/day x7, pre): 1.65 ng/dL
- Testosterone level in blood (G16 Male 250 mg/kg sc 1/day x7, 4 hr): 0.11 ng/dL
- Testosterone level in blood (G16 Male 250 mg/kg sc 1/day x7, 8 hr): 0.03 ng/dL
- Testosterone level in blood (G16 Male 250 mg/kg sc 1/day x7, 2 days): 0 ng/dL
- Testosterone level in blood (G16 Male 250 mg/kg sc 1/day x7, 3 days): 0.08 ng/dL
- Testosterone level in blood (G16 Male 250 mg/kg sc 1/day x7, 4 days): 0.18 ng/dL
- Testosterone level in blood (G16 Male 250 mg/kg sc 1/day x7, 5 days): 0.09 ng/dL
- Testosterone level in blood (G16 Male 250 mg/kg sc 1/day x7, 6 days): 0.14 ng/dL
- Testosterone level in blood (G16 Male 250 mg/kg sc 1/day x7, 7 days): 0.12 ng/dL
- Testosterone level in blood (G16 Male 250 mg/kg sc 1/day x7, pre): 0.18 ng/dL
- Testosterone level (female group, after injection of PEP-1): 0.05 ng/dL
- Effect on the Testosterone level (female rat): does not have significant effect
- Testosterone level (male groups, Day 1, all groups injected with PEP-1): 6 to 10 ng/dL
- Testosterone level, PEP-1 versus vehicle (male groups, after Day 3): no significant difference between PEP-1 and vehicle
